Experimental data: patent publication US10323037B2, “Aminopyridazinone compounds as protein kinase inhibitors” (Jiangsu Hengrui Medicine Co., Ltd., priority 2014, dated 2019)

The compounds below were run on TMD-8 cells (assay: Cell proliferation assay (CellTiter-Glo), TMD-8). Details: 5-day treatment; read-out: TMD8 cells growth IC50.
Type: cell-based
Summary of the method: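 TMD-8 cells seeded at 5,000–10,000/well, cultured overnight, then exposed to compound (vehicle 0.5% DMSO) for 5 days at 37 °C. Growth read by CellTiter-Glo luminescence; IC50 from log concentration versus % growth inhibition relative to vehicle.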
For CN(C)C/C=C/C(=O)N1CC(Cn2cc(-c3ccc(Oc4ccccc4)cc3)c3c(N)n[nH]c(=O)c32)C1 [Example 47, 4-amino-1-[[1-[(E)-4-(dimethylamino)but-2-enoyl]azetidin-3-yl]methyl]-3-(4-phenoxyphenyl)-6H-pyrrolo[2,3 d]pyridazin-7-one], the IC50 was at most 10 nM.

Same assay, conditions: Homo sapiens, TMD8, 120 h; 5-day treatment; read-out: TMD8 cells growth IC50
Compound CN(C)C/C=C/C(=O)N1CCCC(n2cc(-c3ccc(Oc4ccc(F)cc4)cc3)c3c(N)n[nH]c(=O)c32)C1 (centres unmarked) [Example 61, 4-amino-1-[1-[(E)-4-(dimethylamino)but-2-enoyl]-3-piperidyl]-3-[4-(4-fluorophenoxy)phenyl]-6H-pyrrolo[2,3-d]pyridazin-7-one] has an IC50 of 10 to 1000 nM. Work on N#CN1CCCC(n2cc(-c3ccc(Oc4ccccc4F)cc3)c3c(N)n[nH]c(=O)c32)C1 (centres unmarked) [Example 108, 3-(4-amino-3-(4-(2-fluorophenoxy)phenyl)-7-oxo-6,7-dihydro-1H-pyrrolo[2,3-d]pyridazin-1-yl)piperidine-1-carbonitrile] yielded an IC50 of at most 10 nM. C=CC(=O)NC1C2CCC1CC(n1cc(-c3ccc(Oc4ccccc4)cc3)c3c(N)n[nH]c(=O)c31)C2 (centres unmarked) [Example 15, N-(3-(4-amino-7-oxo-3-(4-phenoxyphenyl)-6,7-dihydro-1H-pyrrolo[2,3-d]pyridazin-1-yl)bicyclo[3.2.1]octan-8-yl)acrylamide] was tested, and the IC50 was at most 10 nM. Work on CN(C)C/C=C/C(=O)N1CC(n2cc(-c3ccc(Oc4ccccc4)cc3)c3c(N)n[nH]c(=O)c32)C1 [Example 40, 4-amino-1-[1-[(E)-4-(dimethylamino)but-2-enoyl]azetidin-3-yl]-3-(4-phenoxyphenyl)-6H-pyrrolo[2,3-d]pyridazin-7-one] yielded an IC50 of 10 to 1000 nM. With C=CC(=O)N1CCCC(n2cc(-c3ccc(Oc4cccc(Cl)c4)c(OC)c3)c3c(N)n[nH]c(=O)c32)C1 (centres unmarked) [Example 68, 1-(1-acryloylpiperidin-3-yl)-4-amino-3-(4-(3-chlorophenoxy)-3-methoxyphenyl)-1H-pyrrolo[2,3-d]pyridazin-7(6H)-one] the IC50 was at most 10 nM. With N#C/C(=C\C1CC1)C(=O)N1CCC[C@@H](n2cc(-c3ccc(Oc4ccccc4)cc3)c3c(N)n[nH]c(=O)c32)C1 [Example 50, (E)-2-[(3R)-3-[4-amino-7-oxo-3-(4-phenoxyphenyl)-6H-pyrrolo[2,3-d]pyridazin-1-yl]piperidine-1-carbonyl]-3-cyclopropyl-prop-2-enenitrile] the IC50 was 10 to 1000 nM. Work on CN(C)C/C=C/C(=O)N1CCC[C@@H](n2cc(-c3ccc(Oc4ccccc4)c(F)c3)c3c(N)n[nH]c(=O)c32)C1 [Example 75, 4-amino-1-[(3R)-1-[(E)-4-(dimethylamino)but-2-enoyl]-3-piperidyl]-3-(3-fluoro-4-phenoxy-phenyl)-6H-pyrrolo[2,3-d]pyridazin-7-one] yielded an IC50 of 10 to 1000 nM. For CCN(C/C=C/C(=O)N1CCC[C@@H](n2cc(-c3ccc(Oc4ccccc4)cc3)c3c(N)n[nH]c(=O)c32)C1)C1CC1 [Example 30, 4-amino-1-[(3R)-1-[(E)-4-[cyclopropyl(ethyl)amino]but-2-enoyl]-3-piperidyl]-3-(4-phenoxyphenyl)-6H-pyrrolo[2,3-d]pyridazin-7-one], the IC50 was 10 to 1000 nM. Compound CC#CC(=O)N1CCC[C@@H](n2cc(-c3ccc(Oc4c(F)cccc4F)cc3)c3c(N)n[nH]c(=O)c32)C1 [Example 117, (R)-4-amino-1-(1-(but-2-ynoyl)piperidin-3-yl)-3-(4-(2,6-difluorophenoxy)phenyl)-1H-pyrrolo[2,3-d]pyridazin-7(6H)-one] has an IC50 of 10 to 1000 nM. In the case of COc1cc(-c2cn(C3CCCN(C(=O)/C=C/CN(C)C)C3)c3c(=O)[nH]nc(N)c23)ccc1Oc1cccc(Cl)c1 (centres unmarked) [Example 69, 4-amino-3-[4-(3-chlorophenoxy)-3-methoxy-phenyl]-1-[1-[(E)-4-(dimethylamino)but-2-enoyl]-3-piperidyl]-6H-pyrrolo[2,3-d]pyridazin-7-one], the IC50 is reported as at most 10 nM. CC#CC(=O)N1C[C@H](OC)[C@@H](n2cc(-c3ccc(Oc4ccccc4F)cc3)c3c(N)n[nH]c(=O)c32)C1 [Example 98, 4-amino-1-((3S,4S)-1-(but-2-ynoyl)-4-methoxypyrrolidin-3-yl)-3-(4-(2-fluorophenoxy)phenyl)-1H-pyrrolo[2,3-d]pyridazin-7(6H)-one and Enantiomer] was tested, and the IC50 was 10 to 1000 nM. CN(C)C/C=C/C(=O)N1CCC(n2cc(-c3ccc(Oc4ccccc4)cc3)c3c(N)n[nH]c(=O)c32)CC1 [Example 44, 4-amino-1-[1-[(E)-4-(dimethylamino)but-2-enoyl]-4-piperidyl]-3-(4-phenoxyphenyl)-6H-pyrrolo[2,3-d]pyridazin-7-one] showed an IC50 of 10 to 1000 nM. C=CC(=O)N1CCC(Cn2cc(-c3ccc(Oc4ccccc4)cc3)c3c(N)n[nH]c(=O)c32)CC1 [Example 10, 4-amino-3-(4-phenoxyphenyl)-1-[(1-prop-2-enoyl-4-piperidyl)methyl]-6H-pyrrolo[2,3-d]pyridazin-7-one] gave an IC50 of 10 to 1000 nM. C=CC(=O)N1CCC[C@@H](n2cc(-c3ccc(Oc4ccccc4Cl)cc3)c3c(N)n[nH]c(=O)c32)C1 [Example 70, (R)-1-(1-acryloylpiperidin-3-yl)-4-amino-3-(4-(2-chlorophenoxy)phenyl)-1H-pyrrolo[2,3-d]pyridazin-7(6H)-one] gave an IC50 of at most 10 nM. Compound C=CC(=O)N1CCC[C@@H](n2nc(-c3ccc(Oc4ccccc4F)cc3)c3c(N)n[nH]c(=O)c32)C1 [Example 109, (R)-1-(1-acryloylpiperidin-3-yl)-4-amino-3-(4-(2-fluorophenoxy)phenyl)-1H-pyrazolo[3,4-d]pyridazin-7(6H)-one] has an IC50 of at most 10 nM. Work on CC#CC(=O)N1CC[C@@H](n2cc(-c3ccc(Oc4ccccc4F)cc3)c3c(N)n[nH]c(=O)c32)C1 [Example 95, (R)-4-amino-1-(1-(but-2-ynoyl)pyrrolidin-3-yl)-3-(4-(2-fluorophenoxy)phenyl)-1H-pyrrolo[2,3-d]pyridazin-7(6H)-one] yielded an IC50 of at most 10 nM. CN(C)C/C=C/C(=O)N1CCC(Cn2cc(-c3ccc(Oc4ccccc4)cc3)c3c(N)n[nH]c(=O)c32)C1 (centres unmarked) [Example 43, 4-amino-1-[[1-[(E)-4-(dimethylamino)but-2-enoyl]pyrrolidin-3-yl]methyl]-3-(4-phenoxyphenyl)-6H-pyrrolo[2,3-d]pyridazin-7-one] gave an IC50 of 10 to 1000 nM. In the case of CN(C)C/C=C/C(=O)N1CCC[C@@H](n2c(F)c(-c3ccc(Oc4ccccc4)cc3)c3c(N)n[nH]c(=O)c32)C1 [Example 82, 4-amino-1-[(3R)-1-[(E)-4-(dimethylamino)but-2-enoyl]-3-piperidyl]-2-fluoro-3-(4-phenoxyphenyl)-6H-pyrrolo[2,3-d]pyridazin-7-one], the IC50 is reported as at most 10 nM. C=CC(=O)N1CCCC(n2cc(-c3ccc(Oc4ccccc4F)cc3)c3c(N)n[nH]c(=O)c32)C1 (centres unmarked) [Example 55, 1-(1-acryloylpiperidin-3-yl)-4-amino-3-(4-(2-fluorophenoxy)phenyl)-1H-pyrrolo[2,3-d]pyridazin-7(6H)-one] was tested, and the IC50 was at most 10 nM. C=CC(=O)N1CCCC(n2cc(-c3ccc(Oc4cccc(Cl)c4)cc3)c3c(N)n[nH]c(=O)c32)C1 (centres unmarked) [Example 66, 1-(1-acryloylpiperidin-3-yl)-4-amino-3-(4-(3-chlorophenoxy)phenyl)-1H-pyrrolo[2,3-d]pyridazin-7(6H)-one] was tested, and the IC50 was at most 10 nM. C=CC(=O)N1CCC(F)C(n2cc(-c3ccc(Oc4ccccc4)cc3)c3c(N)n[nH]c(=O)c32)C1 (centres unmarked) [Example 13, 1-(1-acryloyl-4-fluoropiperidin-3-yl)-4-amino-3-(4-phenoxyphenyl)-1H-pyrrolo[2,3-d]pyridazin-7(6H)-one] was tested, and the IC50 was at most 10 nM. In the case of N#CN1CCC[C@@H](n2cc(-c3ccc(Oc4c(F)cccc4F)cc3)c3c(N)n[nH]c(=O)c32)C1 [Example 84, (R)-3-(4-amino-3-(4-(2,6-difluorophenoxy)phenyl)-7-oxo-6,7-dihydro-1H-pyrrolo[2,3-d]pyridazin-1-yl)piperidine-1-carbonitrile], the IC50 is reported as at most 10 nM. Work on CN(C)C/C=C/C(=O)N1CCCC(n2cc(-c3ccc(Oc4ccc(Cl)cc4)cc3)c3c(N)n[nH]c(=O)c32)C1 (centres unmarked) [Example 65, 4-amino-3-[4-(4-chlorophenoxy)phenyl]-1-[1-[(E)-4-(dimethylamino)but-2-enoyl]-3-piperidyl]-6H-pyrrolo[2,3-d]pyridazin-7-one] yielded an IC50 of 10 to 1000 nM. CN(C)C/C=C/C(=O)N1CCC[C@@H](n2cc(-c3ccc(Oc4ccccc4Cl)cc3)c3c(N)n[nH]c(=O)c32)C1 [Example 71, 4-amino-3-[4-(2-chlorophenoxy)phenyl]-1-[(3R)-1-[(E)-4-(dimethylamino)but-2-enoyl]-3-piperidyl]-6H-pyrrolo[2,3-d]pyridazin-7-one] was tested, and the IC50 was at most 10 nM. CC#CC(=O)N1CC[C@@H](n2cc(-c3ccc(Oc4c(F)cccc4F)cc3)c3c(N)n[nH]c(=O)c32)C1 [Example 93, (R)-4-amino-1-(1-(but-2-ynoyl)pyrrolidin-3-yl)-3-(4-(2,6-difluorophenoxy)phenyl)-1H-pyrrolo[2,3-d]pyridazin-7(6H)-one] gave an IC50 of at most 10 nM. C=CC(=O)N1CCC[C@@H](n2nc(-c3ccc(Oc4ccccc4)cc3)c3c(N)n[nH]c(=O)c32)C1 [Example 110, (R)-1-(1-acryloylpiperidin-3-yl)-4-amino-3-(4-phenoxyphenyl)-1H-pyrazolo[3,4-d]pyridazin-7(6H)-one] showed an IC50 of at most 10 nM. For CN(C)C/C=C/C(=O)N1CCC[C@@H](n2cc(-c3ccc(Oc4ccccc4F)cc3)c3c(N)n[nH]c(=O)c32)C1 [Example 57, 4-amino-1-[(3R)-1-[(E)-4-(dimethylamino)but-2-enoyl]-3-piperidyl]-3-[4-(2-fluorophenoxy)phenyl]-6H-pyrrolo[2,3-d]pyridazin-7-one], the IC50 was at most 10 nM. Work on C=CC(=O)N1CCC[C@@H](n2cc(-c3ccc(Oc4ccccc4)cc3F)c3c(N)n[nH]c(=O)c32)C1 [Example 76, (R)-1-(1-acryloylpiperidin-3-yl)-4-amino-3-(2-fluoro-4-phenoxyphenyl)-1H-pyrrolo[2,3-d]pyridazin-7(6H)-one] yielded an IC50 of at most 10 nM.
